{"source": "patent US11033535B2", "about": "“Oxadiazoles and thiadiazoles as TGF-β inhibitors” (Southern Research Institute, priority 2017, dated 2021)", "test": "Pharmacokinetic evaluation following a single oral and intravenous administration", "assay_type": "in vivo, CD1 mouse", "conditions": "for concentration at 1 h / concentration at 2 h / concentration at 4 h / concentration at 8 h / concentration at 24 h / AUC(0-inf) / AUC(0-t) / Cmax / MRT inf / half-life: CD1, mouse, plasma, po, 5 mg/kg; for concentration at 1 h / concentration at 2 h / concentration at 4 h / concentration at 8 h / concentration at 24 h: Table 5, PO Dose: 5 mg/kg", "description": "A NMP stock solution was prepared by adding 1.136 mL of NMP to 5.68 mg of compound no. 42140 with vortexing and sonification, to obtain a solution with a concentration at 5 mg/mL of 42140:01. Next, to prepare an intravenous formulation, 0.100 mL of the 5 mg/mL stock solution was placed in a new vial. 0.100 mL of NMP and 0.400 mL of PEG400 were added with vortexing and sonification, followed by addition of 0.400 mL of saline with vortexing and sonification. […] 42140:01. Alternatively, to prepare an oral formulation, 0.200 mL of the 5 mg/mL stock solution was placed in a new vial. 0.400 mL of PEG400 was added with vortexing and sonification, followed by addition of 0.400 mL of saline with vortexing and sonifiction. […] 42140:01.\n(§1) Briefly, the desired serial concentrations of working solutions were achieved by diluting a stock solution of the compound with 100% acetonitrile. 3 μL of working solutions (5, 10, 20, 50, 100, 500, 1000, 5000, 10000 ng/mL) were added to 30 μL of the blank CD1 mouse plasma to achieve calibration standards of 0.5-1000 ng/mL (0.5, 1, 2, 5, 10, 50, 100, 500, 1000 ng/mL) in a total volume of 33 μL. Five quality control samples at 1 ng/mL, 2 ng/mL, 5 ng/mL, 50 ng/mL and 800 ng/mL for plasma were prepared independently of those used for the calibration curves. These QC samples were prepared on the day of analysis in the same way as calibration standards.\nNext, 33 μL standards, 33 μL QC samples, and 33 μL unknown samples (30 μL plasma with 3 μL blank solution) were added to 200 μL of acetonitrile containing IS mixture for precipitating protein, respectively. Then the samples were vortexed for 30 s. After centrifugation at 4 degree Celsius, 4000 rpm for 15 min, 3 μL of supernatant was injected into the LC/MS/MS system for quantitative analysis.\nHPLC analysis was performed using 100% water with 0.1% formic acid (Solution A) and 100% acetonitrile with 0.1% formic acid (Solution B) with a flow rate of 0.6 mL/min.\nA NMP stock solution was prepared by adding 2.092 mL of NMP to 10.46 mg of […] with vortexing and sonification, to obtain a solution with a concentration at 5 mg/mL of […]. Next, to prepare an intravenous formulation, 0.100 mL of the 5 mg/mL stock solution was placed in a new vial. 0.100 mL of NMP and 0.400 mL of PEG400 were added with vortexing and sonification, followed by addition of 0.400 mL of saline with vortexing and sonification. […] 42320:01. Alternatively, to prepare an oral formulation, 0.200 mL of the 5 mg/mL stock solution was placed in a new vial. 0.400 mL of PEG400 was added with vortexing and sonification, followed by addition of 0.400 mL of saline with vortexing and sonifiction. […] 42320:01.\nas §1, with “50 ng/mL,” for “50 ng/mL”", "key": {"[1]": {"conditions": "Mouse 5, read-out: Concentration"}, "[2]": {"conditions": "Mouse 6, read-out: Concentration"}, "[3]": {"conditions": "mean, read-out: Concentration, Mean"}, "[4]": {"conditions": "Mouse 4, read-out: Concentration"}, "[5]": {"conditions": "Table 4, IV Dose: 1 mg/kg, Mouse 1"}, "[6]": {"conditions": "Table 4, IV Dose: 1 mg/kg, Mouse 2"}, "[7]": {"conditions": "Table 4, IV Dose: 1 mg/kg, Mouse 3"}, "[8]": {"conditions": "Table 4, IV Dose: 1 mg/kg, mean"}, "[9]": {"conditions": "Table 6, PO Dose: 5 mg/kg, Mouse 4"}, "[10]": {"conditions": "Table 6, PO Dose: 5 mg/kg, Mouse 5"}, "[11]": {"conditions": "Table 6, PO Dose: 5 mg/kg, Mouse 6"}, "[12]": {"conditions": "Table 6, PO Dose: 5 mg/kg, mean"}}, "note": "Where two headings read alike, the source gives them in different places."}
{"smiles": "CNCc1ccc(C[C@H](NC(C)=O)c2nnc(-c3cccc(OC(F)(F)F)c3)s2)cc1", "note": "[Compound 42140, N-(2-(4-((methylamino)methyl)phenyl)-1-(5-(3-(trifluoromethoxy)phenyl)-1,3,4-thiadiazol-2-yl)ethyl)acetamide]", "values": [{"measurement": "concentration at 1 h", "setting": "[1]", "value": 129, "unit": "ng/mL"}, {"measurement": "concentration at 1 h", "setting": "[2]", "value": 136, "unit": "ng/mL"}, {"measurement": "concentration at 1 h", "setting": "[3]", "value": 127, "unit": "ng/mL"}, {"measurement": "concentration at 2 h", "setting": "[4]", "value": 139, "unit": "ng/mL"}, {"measurement": "concentration at 2 h", "setting": "[1]", "value": 140, "unit": "ng/mL"}, {"measurement": "concentration at 2 h", "setting": "[2]", "value": 175, "unit": "ng/mL"}, {"measurement": "concentration at 2 h", "setting": "[3]", "value": 151, "unit": "ng/mL"}, {"measurement": "concentration at 4 h", "setting": "[4]", "value": 103, "unit": "ng/mL"}, {"measurement": "concentration at 4 h", "setting": "[1]", "value": 112, "unit": "ng/mL"}, {"measurement": "concentration at 4 h", "setting": "[2]", "value": 123, "unit": "ng/mL"}, {"measurement": "concentration at 4 h", "setting": "[3]", "value": 113, "unit": "ng/mL"}, {"measurement": "concentration at 8 h", "setting": "[4]", "value": 72.7, "unit": "ng/mL"}, {"measurement": "concentration at 8 h", "setting": "[1]", "value": 91.4, "unit": "ng/mL"}, {"measurement": "concentration at 8 h", "setting": "[2]", "value": 93.5, "unit": "ng/mL"}, {"measurement": "concentration at 8 h", "setting": "[3]", "value": 85.9, "unit": "ng/mL"}, {"measurement": "concentration at 24 h", "setting": "[4]", "value": 29.8, "unit": "ng/mL"}, {"measurement": "concentration at 24 h", "setting": "[1]", "value": 22.7, "unit": "ng/mL"}, {"measurement": "concentration at 24 h", "setting": "[2]", "value": 29.6, "unit": "ng/mL"}, {"measurement": "concentration at 24 h", "setting": "[3]", "value": 27.4, "unit": "ng/mL"}, {"measurement": "AUC(0-inf)", "setting": "Table 6, PO Dose: 5 mg/kg, Mouse 4, read-out: AUCInf", "value": 2110, "unit": "ng·h/mL"}, {"measurement": "AUC(0-t)", "setting": "Table 6, PO Dose: 5 mg/kg, Mouse 4, read-out: AUClast", "value": 1620, "unit": "ng·h/mL"}, {"measurement": "Cmax", "setting": "Table 6, PO Dose: 5 mg/kg, Mouse 4, read-out: Cmax", "value": 139, "unit": "ng/mL"}, {"measurement": "MRT inf", "setting": "Table 6, PO Dose: 5 mg/kg, Mouse 4, read-out: MRTInf—obs", "value": 15.8, "unit": "h"}, {"measurement": "half-life", "setting": "Table 6, PO Dose: 5 mg/kg, Mouse 4, read-out: T1/2 (converted)", "value": 11.5, "unit": "h"}, {"measurement": "AUC(0-inf)", "setting": "Table 6, PO Dose: 5 mg/kg, Mouse 5, read-out: AUCInf", "value": 2060, "unit": "ng·h/mL"}, {"measurement": "AUC(0-t)", "setting": "Table 6, PO Dose: 5 mg/kg, Mouse 5, read-out: AUClast", "value": 1790, "unit": "ng·h/mL"}, {"measurement": "Cmax", "setting": "Table 6, PO Dose: 5 mg/kg, Mouse 5, read-out: Cmax", "value": 140, "unit": "ng/mL"}, {"measurement": "MRT inf", "setting": "Table 6, PO Dose: 5 mg/kg, Mouse 5, read-out: MRTInf—obs", "value": 11.4, "unit": "h"}, {"measurement": "half-life", "setting": "Table 6, PO Dose: 5 mg/kg, Mouse 5, read-out: T1/2 (converted)", "value": 8.47, "unit": "h"}, {"measurement": "AUC(0-inf)", "setting": "Table 6, PO Dose: 5 mg/kg, Mouse 6, read-out: AUCInf", "value": 2380, "unit": "ng·h/mL"}, {"measurement": "AUC(0-t)", "setting": "Table 6, PO Dose: 5 mg/kg, Mouse 6, read-out: AUClast", "value": 1960, "unit": "ng·h/mL"}, {"measurement": "Cmax", "setting": "Table 6, PO Dose: 5 mg/kg, Mouse 6, read-out: Cmax", "value": 175, "unit": "ng/mL"}, {"measurement": "MRT inf", "setting": "Table 6, PO Dose: 5 mg/kg, Mouse 6, read-out: MRTInf—obs", "value": 13.1, "unit": "h"}, {"measurement": "half-life", "setting": "Table 6, PO Dose: 5 mg/kg, Mouse 6, read-out: T1/2 (converted)", "value": 9.71, "unit": "h"}, {"measurement": "AUC(0-inf)", "setting": "Table 6, PO Dose: 5 mg/kg, mean, read-out: AUCInf, Mean", "value": 2190, "unit": "ng·h/mL"}, {"measurement": "AUC(0-t)", "setting": "Table 6, PO Dose: 5 mg/kg, mean, read-out: AUClast, Mean", "value": 1790, "unit": "ng·h/mL"}, {"measurement": "Cmax", "setting": "Table 6, PO Dose: 5 mg/kg, mean, read-out: Cmax, Mean", "value": 151, "unit": "ng/mL"}, {"measurement": "MRT inf", "setting": "Table 6, PO Dose: 5 mg/kg, mean, read-out: MRTInf—obs, Mean", "value": 13.4, "unit": "h"}, {"measurement": "half-life", "setting": "Table 6, PO Dose: 5 mg/kg, mean, read-out: T1/2, Mean (converted)", "value": 9.9, "unit": "h"}, {"measurement": "Tmax", "setting": "CD1, plasma, Table 6, PO Dose: 5 mg/kg, Mouse 4", "value": 2, "unit": "h"}, {"measurement": "AUClast/D", "setting": "[5]", "value": 462, "unit": "h·ng/mL per mg/kg"}, {"measurement": "AUC—% Extrap—obs", "setting": "[5]", "value": 17.0, "unit": "%"}, {"measurement": "Cl_obs", "setting": "[5]", "value": 29.9, "unit": "mL/min/kg"}, {"measurement": "AUClast/D", "setting": "[6]", "value": 389, "unit": "h·ng/mL per mg/kg"}, {"measurement": "AUC—% Extrap—obs", "setting": "[6]", "value": 19.8, "unit": "%"}, {"measurement": "Cl_obs", "setting": "[6]", "value": 34.3, "unit": "mL/min/kg"}, {"measurement": "AUClast/D", "setting": "[7]", "value": 394, "unit": "h·ng/mL per mg/kg"}, {"measurement": "AUC—% Extrap—obs", "setting": "[7]", "value": 11.6, "unit": "%"}, {"measurement": "Cl_obs", "setting": "[7]", "value": 37.4, "unit": "mL/min/kg"}, {"measurement": "AUClast/D, Mean", "setting": "[8]", "value": 415, "unit": "h·ng/mL per mg/kg"}, {"measurement": "AUC—% Extrap—obs, Mean", "setting": "[8]", "value": 16.1, "unit": "%"}, {"measurement": "C0, Mean", "setting": "[8]", "value": 101, "unit": "ng/mL"}, {"measurement": "Cl_obs, Mean", "setting": "[8]", "value": 33.9, "unit": "mL/min/kg"}, {"measurement": "AUClast/D", "setting": "[9]", "value": 324, "unit": "h·ng/mL per mg/kg"}, {"measurement": "AUC—% Extrap—obs", "setting": "[9]", "value": 23.4, "unit": "%"}, {"measurement": "F", "setting": "[9]", "value": 78.0, "unit": "%"}, {"measurement": "AUClast/D", "setting": "[10]", "value": 358, "unit": "h·ng/mL per mg/kg"}, {"measurement": "AUC—% Extrap—obs", "setting": "[10]", "value": 13.4, "unit": "%"}, {"measurement": "F", "setting": "[10]", "value": 83.3, "unit": "%"}, {"measurement": "AUClast/D", "setting": "[11]", "value": 393, "unit": "h·ng/mL per mg/kg"}, {"measurement": "AUC—% Extrap—obs", "setting": "[11]", "value": 17.4, "unit": "%"}, {"measurement": "F", "setting": "[11]", "value": 95.9, "unit": "%"}, {"measurement": "AUClast/D, Mean", "setting": "[12]", "value": 358, "unit": "h·ng/mL per mg/kg"}, {"measurement": "AUC—% Extrap—obs, Mean", "setting": "[12]", "value": 18.1, "unit": "%"}, {"measurement": "F, Mean", "setting": "[12]", "value": 85.7, "unit": "%"}]}
